Columns and labels:
[1] = biological target: GDP-bound KRAS wild-type protein (Homo sapiens, UniProt P01116); assay: Binding to KRAS by surface plasmon resonance (SPR), Single Cycle Kinetics; conditions: SPR, Single Cycle Kinetics, GDP-bound KRAS wild-type protein; read-out: KRAS KD
[2] = biological target: GDP-bound NRAS wild-type protein (Homo sapiens, UniProt P01111); assay: Binding to NRAS by surface plasmon resonance (SPR), Single Cycle Kinetics; conditions: SPR, GDP-bound NRAS wild-type protein vs GDP-bound KRAS wild-type protein
[3] = biological target: GDP-bound HRAS wild-type protein (Homo sapiens, UniProt P01112); assay: Binding to HRAS by surface plasmon resonance (SPR), Single Cycle Kinetics; conditions: SPR, GDP-bound HRAS wild-type protein vs GDP-bound KRAS wild-type protein
Sequence of GDP-bound HRAS wild-type protein (P01112 whole entry): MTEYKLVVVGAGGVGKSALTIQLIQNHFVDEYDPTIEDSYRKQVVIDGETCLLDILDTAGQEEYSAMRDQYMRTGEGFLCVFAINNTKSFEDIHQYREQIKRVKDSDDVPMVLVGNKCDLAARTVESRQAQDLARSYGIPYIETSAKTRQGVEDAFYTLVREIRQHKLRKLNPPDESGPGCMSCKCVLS

Sequence of GDP-bound NRAS wild-type protein (P01111 whole entry): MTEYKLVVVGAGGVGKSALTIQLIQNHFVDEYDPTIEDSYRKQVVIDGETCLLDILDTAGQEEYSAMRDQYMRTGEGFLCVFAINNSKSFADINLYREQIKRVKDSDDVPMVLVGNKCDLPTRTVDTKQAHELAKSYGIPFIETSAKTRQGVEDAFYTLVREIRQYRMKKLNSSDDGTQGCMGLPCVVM
Sequence of GDP-bound KRAS wild-type protein (P01116 whole entry): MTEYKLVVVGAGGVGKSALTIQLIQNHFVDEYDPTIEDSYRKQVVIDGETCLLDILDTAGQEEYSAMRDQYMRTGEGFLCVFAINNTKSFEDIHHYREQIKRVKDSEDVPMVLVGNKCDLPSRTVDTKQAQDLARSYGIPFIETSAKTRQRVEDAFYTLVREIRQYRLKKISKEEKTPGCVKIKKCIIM

| Kd [1] | Structure (SMILES) | NRAS/KRAS (ratio of KD value for NRAS to KD value for KRAS) [2] | HRAS/KRAS (ratio of KD value for HRAS to KD value for KRAS) [3] |
| --- | --- | --- | --- |
| 0.024 nM | CCO[C@@H]1C[C@H]2C(=O)NC3(CCC3)C(=O)N(C)[C@@H](C3CCCC3)C(=O)N(C)[C@H](C(=O)N(C)C)CC(=O)N(C)[C@@H](CC)C(=O)N[C@@H]([C@@H](C)CC)C(=O)N(C)CC(=O)N(C)[C@H]3CCCCN(C3=O)[C@@H](Cc3ccc(C(F)(F)F)cc3)C(=O)N(C)CC(=O)N[C@@H](CCc3ccc(Cl)c(Cl)c3)C(=O)N2C1 [PP0987] | C (A compound having a KD ratio of 0.1 or more and less than 3 is denoted as C) | C (A compound having a KD ratio of 0.1 or more and less than 3 is denoted as C) |
| 0.046 nM | CCO[C@@H]1C[C@H]2C(=O)NC3(CCC3)C(=O)N(C)[C@@H](C3CCCC3)C(=O)N(C)[C@H](C(=O)N(C)C)CC(=O)N(C)[C@@H](CC)C(=O)N[C@@H]([C@@H](C)CC)C(=O)N(C)CC(=O)N(C)[C@H]3CCCCN(C3=O)[C@@H](Cc3ccc(C(F)(F)F)cc3)C(=O)N(C)CC(=O)N[C@@H](CCc3cc(Cl)c(Cl)c(Cl)c3)C(=O)N2C1 [PP0988] | C (A compound having a KD ratio of 0.1 or more and less than 3 is denoted as C) | B (a compound having 3 or more and less than 10 is denoted as B) |
| 1.3 nM | CCO[C@@H]1C[C@H]2C(=O)NC3(CCC3)C(=O)N(C)[C@@H](C3CCCC3)C(=O)N(C)[C@H](C(=O)N(C)C)CC(=O)N(C)[C@@H](CC)C(=O)N[C@@H]([C@@H](C)CC)C(=O)N(C)CC(=O)N(C)[C@H]3CCCCCN(C3=O)[C@@H](Cc3ccc(C(F)(F)F)cc3)C(=O)N(C)CC(=O)N[C@@H](CCc3cc(Cl)c(C(F)(F)F)c(Cl)c3)C(=O)N2C1 [PP0989] | B (a compound having 3 or more and less than 10 is denoted as B) | B (a compound having 3 or more and less than 10 is denoted as B) |
| 4.6 nM | CCO[C@@H]1C[C@H]2C(=O)N[C@]3(C)CCCCCC[C@@H](C(=O)N[C@@H]([C@@H](C)CC)C(=O)N(C)CC(=O)N(C)[C@H]4CCCCN(C4=O)[C@@H](Cc4ccc(C(F)(F)F)cc4)C(=O)N(C)CC(=O)N[C@@H](CCc4cc(F)c(C(F)(F)F)c(F)c4)C(=O)N2C1)N(C)C(=O)C[C@@H](C(=O)N1CCOCC1)N(C)C(=O)[C@H](C1CCCC1)N(C)C3=O [PP0992] | B (a compound having 3 or more and less than 10 is denoted as B) | B (a compound having 3 or more and less than 10 is denoted as B) |
| 1.4 nM | CCO[C@@H]1C[C@H]2C(=O)N[C@@]3(C)CCCCCCC[C@@H](C(=O)N[C@@H]([C@@H](C)CC)C(=O)N(C)CC(=O)N(C)[C@H]4CCCCN(C4=O)[C@@H](Cc4ccc(C(F)(F)F)cc4)C(=O)N(C)CC(=O)N[C@@H](CCc4cc(F)c(C(F)(F)F)c(F)c4)C(=O)N2C1)N(C)C(=O)C[C@@H](C(=O)N1CCOCC1)N(C)C(=O)[C@H](C1CCCC1)N(C)C3=O [PP0993] | B (a compound having 3 or more and less than 10 is denoted as B) | B (a compound having 3 or more and less than 10 is denoted as B) |
| 0.11 nM | CCCCO[C@@H]1C[C@H]2C(=O)NC3(CCC3)C(=O)N(C)[C@@H](C3CCCC3)C(=O)N(C)[C@H](C(=O)N3CCOCC3)CC(=O)N(C)[C@@H](CC(C)C)C(=O)N[C@@H]([C@@H](C)CC)C(=O)N(C)CC(=O)N(C)[C@H]3CCCCN(C3=O)[C@@H](Cc3ccc(C(F)(F)F)cc3)C(=O)N(C)CC(=O)N[C@@H](CCc3cc(F)c(C(F)(F)F)c(F)c3)C(=O)N2C1 [PP0999] | C (A compound having a KD ratio of 0.1 or more and less than 3 is denoted as C) | B (a compound having 3 or more and less than 10 is denoted as B) |
| 0.1 nM | CC[C@H](C)[C@@H]1NC(=O)[C@H](CC(C)C)N(C)C(=O)C[C@@H](C(=O)N2CCOCC2)N(C)C(=O)[C@H](C2CCCC2)N(C)C(=O)C2(CCC2)NC(=O)[C@@H]2C[C@@H](OCC3CCCC3)CN2C(=O)[C@H](CCc2cc(F)c(C(F)(F)F)c(F)c2)NC(=O)CN(C)C(=O)[C@H](Cc2ccc(C(F)(F)F)cc2)N2CCCC[C@@H](C2=O)N(C)C(=O)CN(C)C1=O [PP1001] | B (a compound having 3 or more and less than 10 is denoted as B) | B (a compound having 3 or more and less than 10 is denoted as B) |
| 0.025 nM | CC[C@H](C)[C@@H]1NC(=O)[C@H](CC(C)C)N(C)C(=O)C[C@@H](C(=O)N2CCOCC2)N(C)C(=O)[C@H](C2CCCC2)N(C)C(=O)C2(CCC2)NC(=O)[C@@H]2C[C@@H](OCC(F)F)CN2C(=O)[C@H](CCc2cc(F)c(C(F)(F)F)c(F)c2)NC(=O)CN(C)C(=O)[C@H](Cc2ccc(C(F)(F)F)cc2)N2CCCC[C@@H](C2=O)N(C)C(=O)CN(C)C1=O [PP1002] | B (a compound having 3 or more and less than 10 is denoted as B) | B (a compound having 3 or more and less than 10 is denoted as B) |
| 0.076 nM | CC[C@H](C)[C@@H]1NC(=O)[C@H](CC(C)C)N(C)C(=O)C[C@@H](C(=O)N2CCOCC2)N(C)C(=O)[C@H](C2CCCC2)N(C)C(=O)C2(CCC2)NC(=O)[C@@H]2C[C@@H](OC)CN2C(=O)[C@H](CCc2cc(F)c(C(F)(F)F)c(F)c2)NC(=O)CN(C)C(=O)[C@H](Cc2ccc(C(F)(F)F)cc2)N2CCCC[C@@H](C2=O)N(C)C(=O)CN(C)C1=O [PP1003] | C (A compound having a KD ratio of 0.1 or more and less than 3 is denoted as C) | B (a compound having 3 or more and less than 10 is denoted as B) |
| 3.7 nM | CCCCO[C@@H]1C[C@H]2C(=O)NC3(CCC3)C(=O)N(C)[C@@H](C3CCCC3)C(=O)N(C)[C@H](C(=O)N3CCOCC3)CC(=O)N(C)[C@@H](CC(C)C)C(=O)N[C@@H]([C@@H](C)CC)C(=O)N(C)CC(=O)N(C)[C@H]3CCCCCN(C3=O)[C@@H](Cc3ccc(C(F)(F)F)cc3)C(=O)N(C)CC(=O)N[C@@H](CCc3cc(F)c(C(F)(F)F)c(F)c3)C(=O)N2C1 [PP1004] | B (a compound having 3 or more and less than 10 is denoted as B) | B (a compound having 3 or more and less than 10 is denoted as B) |
| 1.1 nM | CC[C@H](C)[C@@H]1NC(=O)[C@H](CC(C)C)N(C)C(=O)C[C@@H](C(=O)N2CCOCC2)N(C)C(=O)[C@H](C2CCCC2)N(C)C(=O)C2(CCC2)NC(=O)[C@@H]2C[C@@H](OCC3CC3)CN2C(=O)[C@H](CCc2cc(F)c(C(F)(F)F)c(F)c2)NC(=O)CN(C)C(=O)[C@H](Cc2ccc(C(F)(F)F)cc2)N2CCCCC[C@@H](C2=O)N(C)C(=O)CN(C)C1=O [PP1005] | A (a compound having 10 or more and less than 20 is denoted as A) | A (a compound having 10 or more and less than 20 is denoted as A) |
| 5 nM | CC[C@H](C)[C@@H]1NC(=O)[C@H](CC(C)C)N(C)C(=O)C[C@@H](C(=O)N2CCOCC2)N(C)C(=O)[C@H](C2CCCC2)N(C)C(=O)C2(CCC2)NC(=O)[C@@H]2C[C@@H](OCC3CCCC3)CN2C(=O)[C@H](CCc2cc(F)c(C(F)(F)F)c(F)c2)NC(=O)CN(C)C(=O)[C@H](Cc2ccc(C(F)(F)F)cc2)N2CCCC[C@@H](C2=O)N(C)C(=O)CN(C)C1=O [PP1015] | C (A compound having a KD ratio of 0.1 or more and less than 3 is denoted as C) | C (A compound having a KD ratio of 0.1 or more and less than 3 is denoted as C) |
| 0.27 nM | CC[C@H](C)[C@@H]1NC(=O)[C@H](CC(C)C)N(C)C(=O)C[C@@H](C(=O)N2CCOCC2)N(C)C(=O)[C@H](C2CCCC2)N(C)C(=O)C2(CCC2)NC(=O)[C@@H]2C[C@@H](OC)CN2C(=O)[C@H](CCc2cc(F)c(C(F)(F)F)c(F)c2)NC(=O)CN(C)C(=O)[C@H](Cc2ccc(C(F)(F)F)cc2)N2CCCCC[C@@H](C2=O)N(C)C(=O)CN(C)C1=O [PP1016] | A (a compound having 10 or more and less than 20 is denoted as A) | B (a compound having 3 or more and less than 10 is denoted as B) |
| 0.048 nM | CCO[C@@H]1C[C@H]2C(=O)NC3(CCCC3)C(=O)N(C)[C@@H](C3CCCC3)C(=O)N(C)[C@H](C(=O)N(C)C)CC(=O)N(C)[C@@H](CC(C)C)C(=O)N[C@@H]([C@@H](C)CC)C(=O)N(C)CC(=O)N(C)[C@H]3C[C@@H](C)CCN(C3=O)[C@@H](Cc3ccc(C(F)(F)F)cc3)C(=O)N(C)CC(=O)N[C@@H](CCc3cc(F)c(C(F)(F)F)c(F)c3)C(=O)N2C1 [PP1017] | C (A compound having a KD ratio of 0.1 or more and less than 3 is denoted as C) | B (a compound having 3 or more and less than 10 is denoted as B) |
| 0.055 nM | CCO[C@@H]1C[C@H]2C(=O)NC3(CCC3)C(=O)N(C)[C@@H](C3CCCC3)C(=O)N(C)[C@H](C(=O)N(C)C)CC(=O)N(C)[C@@H](CC(C)C)C(=O)N[C@@H]([C@@H](C)CC)C(=O)N3CC[C@H]3C(=O)N(C)[C@H]3C[C@@H](C)CCN(C3=O)[C@@H](Cc3ccc(C(F)(F)F)cc3)C(=O)N(C)CC(=O)N[C@@H](CCc3cc(F)c(C(F)(F)F)c(F)c3)C(=O)N2C1 [PP1019] | C (A compound having a KD ratio of 0.1 or more and less than 3 is denoted as C) | B (a compound having 3 or more and less than 10 is denoted as B) |

From US20240158446A1, “CYCLIC COMPOUND HAVING SELECTIVE INHIBITORY ACTION ON KRAS OVER HRAS AND NRAS” (CHUGAI SEIYAKU KABUSHIKI KAISHA, priority 2021, published 2024)
